Experimental data: patent US8153592B2, “Modulating toll-like receptor activity” (Mayo Foundation for Medical Education and Research, priority 2005, dated 2012)
Values belong to the substance of their own block, whether it stands above or below them.

Legend:
TLR4 [1] = target: T1, TLR4 (Mus musculus, UniProt Q9JHF9+Q9QUK6); assay: NFκB-luciferase reporter assay in HEK/TLR4(+) cells with perturbed CXCR4 (Examples 2 and 3); type: cell-based, murine
T1 construct: expressed in transfected cells
T1 sequence (Q9QUK6 26-835): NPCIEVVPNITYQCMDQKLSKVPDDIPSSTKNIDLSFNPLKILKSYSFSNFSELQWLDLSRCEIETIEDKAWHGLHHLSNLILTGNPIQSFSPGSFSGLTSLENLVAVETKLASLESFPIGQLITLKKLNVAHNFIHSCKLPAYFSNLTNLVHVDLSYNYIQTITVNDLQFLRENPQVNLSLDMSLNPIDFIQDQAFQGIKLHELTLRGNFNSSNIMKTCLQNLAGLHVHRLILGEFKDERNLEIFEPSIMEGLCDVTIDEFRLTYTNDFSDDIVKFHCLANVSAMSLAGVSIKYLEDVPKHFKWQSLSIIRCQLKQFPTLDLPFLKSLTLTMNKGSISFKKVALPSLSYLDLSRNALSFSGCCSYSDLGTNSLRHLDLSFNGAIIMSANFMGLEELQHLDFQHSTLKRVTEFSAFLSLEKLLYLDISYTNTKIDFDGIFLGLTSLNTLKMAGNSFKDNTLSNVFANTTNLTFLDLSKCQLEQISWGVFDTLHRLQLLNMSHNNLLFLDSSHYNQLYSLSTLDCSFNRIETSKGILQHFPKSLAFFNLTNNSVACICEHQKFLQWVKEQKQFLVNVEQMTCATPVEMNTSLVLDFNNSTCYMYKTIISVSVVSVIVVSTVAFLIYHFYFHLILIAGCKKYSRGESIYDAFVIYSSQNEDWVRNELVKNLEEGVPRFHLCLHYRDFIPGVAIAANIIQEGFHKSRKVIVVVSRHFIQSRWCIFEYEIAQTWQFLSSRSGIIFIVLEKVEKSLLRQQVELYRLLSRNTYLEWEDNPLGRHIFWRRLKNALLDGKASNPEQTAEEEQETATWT
T1 sequence (Q9JHF9 19-160): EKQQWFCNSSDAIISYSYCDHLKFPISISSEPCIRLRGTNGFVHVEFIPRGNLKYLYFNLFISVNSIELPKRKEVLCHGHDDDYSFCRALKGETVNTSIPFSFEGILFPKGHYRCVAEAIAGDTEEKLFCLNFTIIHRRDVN
Method: HEK 293 cells (human embryonic kidney cells) from American Type Culture Collection (ATCC) were cultured in DMEM containing 10% fetal bovine serum, penicillin, and streptomycin. […] TLR4/MD2/CD14 expressing HEK 293 cells were selected using appropriate antibiotic selection medium and were then cloned by limiting dilution in the same medium. Control cells were prepared using empty expression vectors and identical transfection and selection procedures.
HEK 293 cell lines stably expressing TLR4/MD2/CD14 were seeded into 24-well tissue culture plates (2×10^5 cells/well) and allowed to adhere at 37° C. overnight. The adherent cells were transfected with 0.1 μg pTK Renilla-luciferase and 0.1 μg NFκB-firefly-luciferase using Superfect Transfection Reagent (Qiagen) and then cultured for 24 hours at 37° C. in 1 mL DMEM containing 0.5% fetal bovine serum. The cells were stimulated as indicated, washed with phosphate buffered saline, and lysed with 150 μL Passive Lysis Buffer (Promega). The amount of Renilla- and Firefly-luciferase in the cell lysates was assayed simultaneously using Dual-Luciferase Reporter Assay System (Promega) and a TD-20/20 lumenometer (Turner Designs, Sunnyvale, Calif.). Activation of NFκB-firefly luciferase reporter activity is given as the ratio of firefly luciferase to the internal control Renilla luciferase activity, determined and expressed as the mean of triplicate wells.

TLR4/MD2 complex = target: T2, TLR4/MD2 complex (Mus musculus, UniProt Q9JHF9+Q9QUK6); assay: Cell surface expression of TLR4/MD2 on HEK/TLR4(+) cells (flow cytometry); type: cell-based, murine; conditions: HEK/TLR4 cells treated with SDF-1
T2 construct: expressed in transfected cells; host or cells: HEK 293 (HEK/TLR4(+))
T2 sequence (Q9QUK6 26-835): T1 sequence (Q9QUK6 26-835)
T2 sequence (Q9JHF9 19-160): T1 sequence (Q9JHF9 19-160)
Method: FIG. 2. TLR4 signaling is conditioned by extracellular matrix. The impact of extracellular matrix on TLR4 activation was tested in cells cultured in wells coated with extracellular matrix. (A) and (B) Inhibition of NFκB activation by extracellular matrix in HEK/TLR4(+) cells. HEK/TLR4(+) cells were cultured in wells coated with extracellular matrix (ECM) or fibronectin (FN) and transfected with NFκB- and control-luciferase reporter genes. TLR4 signaling in response to increasing amounts of heparan sulfate (A) or LPS (B) was measured six hours after stimulation. […] The cells were tested for cell surface expression of the TLR4/MD2 complex by flow cytometry using monoclonal antibodies specific for that complex. […] (D) and (E) Inhibition of p38 MAP Kinase activation by extracellular matrix in RAW 264 cells. (D) RAW 264.7 murine macrophages were cultured in wells coated with extracellular matrix (ECM) or fibronectin (FN). The cells were stimulated with heparan sulfate (left panel) or LPS (right panel) for the indicated time (minutes), after which the cells were lysed and activated p38 MAPK (phospho p38) was measured by immunoblotting. […] Similar results were obtained for cells stimulated with LPS. The data shown are representative of 3 separate experiments and indicate that activation of TLR4 signaling is inhibited by extracellular matrix.

CXCR4 = target: T3, CXCR4 (Homo sapiens, UniProt P61073); assay: CXCR4 cell surface level on Jurkat T cells (FACS, internalization of CXCR4); type: cell-based; conditions: 37° C. for 30 minutes
T3 construct: endogenous in cells; host or cells: Jurkat T cells
T3 sequence (P61073 whole entry): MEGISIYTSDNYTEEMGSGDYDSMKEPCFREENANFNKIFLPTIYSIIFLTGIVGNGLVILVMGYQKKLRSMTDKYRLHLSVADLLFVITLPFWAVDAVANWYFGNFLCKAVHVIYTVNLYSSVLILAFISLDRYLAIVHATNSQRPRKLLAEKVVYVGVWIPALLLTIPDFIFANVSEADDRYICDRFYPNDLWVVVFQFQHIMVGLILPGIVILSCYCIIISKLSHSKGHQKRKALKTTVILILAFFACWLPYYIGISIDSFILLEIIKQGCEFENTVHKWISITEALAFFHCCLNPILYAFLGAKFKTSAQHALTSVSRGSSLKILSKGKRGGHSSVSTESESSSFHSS
Method: To determine if the purified, recombinant [Hisx6]SDF-1 polypeptide activates CXCR4, Jurkat T cells were stimulated (37° C. for 30 minutes) with buffer alone or with buffer containing a synthetic SDF-1 polypeptide or the purified recombinant [Hisx6]SDF-1 polypeptide. Control cells were stimulated with bovine albumin. The treated cells were stained with fluorochrome-labeled anti-CXCR4 antibodies, and the amount of CXCR4 on the cell surface was measured by the intensity of CXCR4 antibody staining using FACS.

TLR4 [2] = target: T4, TLR4 (Mus musculus, UniProt Q9QUK6); assay: CD86 expression in mouse spleen after intrasplenic injection (immunopathology); type: in vivo, mice; conditions: wild-type TLR4 mice, 12 hours
T4 construct: Spleens of C57BL/10SnJ mice with wild-type TLR4 (SnJ) were injected with 10 ng LPS; from tissue; host or cells: mouse spleen in vivo (C57BL/10SnJ; control C57BL/10ScN lacks the TLR4 gene)
T4 sequence (Q9QUK6 26-835): T1 sequence (Q9QUK6 26-835)
T4 sequence (Q9JHF9 19-160 partner): T1 sequence (Q9JHF9 19-160)
Method: (§1) TLR4-deficient C57BL/10ScN mice, which have a deletion in chromosome 4 that encompasses the TLR4 gene, were obtained from The National Cancer Institute (Bethesda, Md.). C57BL/10SnJ mice, which have wild type TLR4 and are congenic with C57BL/10ScN were obtained from the Jackson Laboratory (Bar Harbor, Me.).
(§2) Mice were anesthetized, and the spleen was directly visualized through an incision in the lateral abdominal wall. TLR4 activators dissolved in 50 μL of PBS were injected into the spleen as follows. The solutions were injected as a 27 gauge needle was withdrawn along the long axis of the organ. Twelve hours after injection, the spleens were harvested and frozen in liquid nitrogen for analysis of CD86 expression. Studies were performed at twelve hours because preliminary experiments indicated CD86 expression became clearly detectable at this time. Longitudinal tissue sections were prepared from the center of the spleen and stained as described elsewhere (Dempsey et al., Glycobiology, 10:467-475 (2000)) with the following modifications. Secondary detection antibodies were diluted in M.O.M. diluent (Vector Laboratories, Burlingame, Calif.) and preabsorbed with mouse serum (Jackson ImmunoResearch Laboratories, West Grove, Pa.). Fluorescent images were converted to grayscale using SPOT software (Diagnostic Instruments, Sterling Heights, Mich.).

TLR4 [3] = assay: as above; type: in vivo, mice; conditions: mice which lack TLR4 function (ScN), injected into spleen
Method: as §1, §2

TLR4 [4] = target: T1, TLR4; assay: NFκB-luciferase reporter assay in HEK/TLR4(+) cells (Example 1: TLR4 activators, extracellular matrix, elastase); type: cell-based, murine
Description: HEK 293 cells were stabily transfected with the TLR4 and MD2 or CD14 expression plasmids, each of which encode a component of a complete, functional TLR4 receptor complex (Akira and Takeda, Nat. Rev. Immunol., 4:499-511 (2004)) using Superfect (Qiagen, Valencia, Calif.) following the manufacturer's instructions. TLR4- and MD2- or CD14-expressing HEK 293 cells were obtained by culturing the transfected cells with appropriate antibiotic selection medium and cloning by limiting dilution in the selection medium. HEK 293 cells expressing TLR4, MD2, and CD14 were generated by transfecting HEK 293 cells expressing TLR4 and MD2 with the CD14 expression plasmid and selecting clones using appropriate antibiotic containing medium. Cell lines expressing TLR4 and MD2 and/or CD14 were then maintained in DMEM supplemented with 10% fetal bovine serum and the appropriate selection antibiotics. Control cell lines were transfected with empty expression vectors and incubated in selection conditions as described above.
Activation of NFκB was measured using a NFκB-luciferase reporter assay. HEK 293 cell lines stabily expressing TLR4, MD2, and/or CD14, or control cells were seeded into 24 well tissue culture plates (2×10^5 cells/well) in 1.0 mL DMEM containing 10% fetal bovine serum and penicillin and streptomycin. The cells were allowed to adhere to the culture wells at 37° C. overnight and were then transfected with 0.1 μg pTK Renilla-luciferase and 0.1 μg NFκB-firefly-luciferase using Superfect Transfection Reagent (Qiagen). Following transfection, the cells were washed once with phosphate buffered saline and cultured for 24 hours at 37° C. in 1.0 mL DMEM containing 0.5% fetal bovine serum. After various treatments, the culture medium was aspirated, and the cells were washed once with PBS. The cells were then lysed in 150 μL Passive Lysis Buffer (Promega) with rocking at room temperature for 15 minutes. Renilla- and Firefly-luciferase were assayed simultaneously using Dual-Luciferase Reporter Assay System (Promega) and a TD-20/20 luminometer (Turner Designs, Sunnyvale, Calif.). Activation of NFκB was reported as a ratio of the firefly luciferase activity to the constitutively expressed Renilla luciferase internal control, and as the mean of triplicate wells.

Expression of TLR4 (TLR4/MD2 complex): did not alter expression of TLR4
Substance: SDF-1: the agonist for CXCR4; natural ligand polypeptide
TLR4 activation by LPS (NFκB-luciferase) (TLR4 [1]; HEK/TLR4(+) cells stimulated simultaneously with LPS and 50 nM SDF-1): indifferent to the presence of LPS at any concentration tested
NFκB-luciferase reporter activation by the agent itself (TLR4 [1]; HEK/TLR4(+) cells, no LPS): slight activation of the luciferase reporter

Substance: [Hisx6]SDF-1: recombinant, histidine-tagged murine SDF-1 polypeptide produced in E. coli
Amount of CXCR4 on the cell surface (CXCR4): stimulate a decrease in CXCR4 on cell surfaces

Expression of CD86 in splenocytes (TLR4 [2]; 0.1 U elastase alone): profoundly increased expression of CD86
Expression of CD86 in splenocytes (TLR4 [2]; small amount (0.01 U) of elastase along with 1 ng LPS): profoundly increased expression of CD86
TLR4 response to elastase (TLR4 [4]; cells grown on fibronectin): did not respond to elastase
Increase of TLR4 response to heparan sulfate versus no elastase (TLR4 [4]; cells on extracellular matrix, elastase 0.1 U/mL, 1 μg/mL heparan sulfate, 4 hours): about 3 fold
Substance: elastase
Expression of CD86 in splenocytes (TLR4 [2]; 0.01 U elastase into spleen): only modestly increased expression of CD86
Increase in CD86 expression (TLR4 [3]): not observed
TLR4 response without added agonist (TLR4 [4]; cells on extracellular matrix, elastase 0.3 U/mL, 4 hours): stimulated full TLR4 responses without addition of agonist

TLR4 response to heparan sulfate (TLR4 [4]; cells grown on fibronectin, 1 μg/mL HS, 4 hours): responded fully to HS
Substance: heparan sulfate
Activation of HEK/TLR4(+) cells (NFκB-luciferase) (TLR4 [4]; 10 μg/mL heparan sulfate or 10 ng/mL LPS, 6 hours): responded both to LPS and heparan sulfate

Substance: pertussis toxin
TLR4 activation by LPS (NFκB-luciferase) (TLR4 [1]; HEK/TLR4(+) cells treated with 0.1 μg/mL pertussis toxin): diminished TLR4 activation by LPS
